Laboratory results: the NIST ThermoML archive (doi:10.1021/je034290l)

Experiments:
[1] = refractive index (Na D-line) (dimensionless); settings: 318.15 K; 101.33 kPa; Liquid; Standard Abbe refractometry
[2] = Liquid; for mass density: 318.15 K, 101.33 kPa
[3] = excess molar enthalpy (molar enthalpy of mixing); xn = mol fraction of the nth substance listed; settings: 101.32 kPa, Liquid, Calvet calorimetry
[4] = xn = mol fraction of the nth substance listed; settings: 101.32 kPa, Liquid

CC(C)(C)O [2-methylpropan-2-ol]
Settings | mass density [kg/m3] | refractive index
[1] | – | 1.3741
[2] | 759.87 | –

CCCC(=O)OC [methyl butanoate]
Settings | mass density [kg/m3] | refractive index
[1] | – | 1.3753
[2] | 870.24 | –

[2]
Settings | vapor or sublimation pressure [kPa]
347.53 K | 40.12
348.26 K | 41.24
349.21 K | 42.76
349.79 K | 43.84
350.81 K | 45.25
351.98 K | 46.74
352.34 K | 47.92
353.21 K | 49.41
353.72 K | 50.85
354.96 K | 51.83
355.26 K | 53.5
356.06 K | 54.82
356.79 K | 55.89
357.44 K | 57.38
358.24 K | 58.61
358.9 K | 60.02
359.7 K | 61.42
360.43 K | 62.63
360.93 K | 64.13
362.03 K | 66.54
362.31 K | 68.03
363.2 K | 69.42
363.49 K | 70.61
363.78 K | 71.18
365.02 K | 73.5
365.38 K | 74.77
365.97 K | 75.89
366.41 K | 77.39
366.84 K | 78.61
367.57 K | 80.14
368.01 K | 81.39
368.59 K | 82.57
369.25 K | 83.91
369.95 K | 85.71
370.19 K | 86.58
370.49 K | 87.94
371.07 K | 88.35
371.72 K | 90.8
371.79 K | 92.1
372.31 K | 93.26
372.89 K | 94.59
373.47 K | 95.92
373.84 K | 97.46
374.57 K | 99.14
374.77 K | 100.04
375.24 K | 101.32
375.37 K | 102.58
375.81 K | 104.06
376.02 K | 105.47
376.39 K | 106.5
376.97 K | 107.92
377.55 K | 109.23
378.14 K | 110.58
378.36 K | 112.15
378.79 K | 113.36
378.94 K | 114.67
379.3 K | 115.84
379.67 K | 117.27
380.03 K | 118.72
380.69 K | 120.15
381.2 K | 121.36
381.56 K | 122.59
381.64 K | 124.01
381.85 K | 125.24
382.22 K | 126.48
382.73 K | 127.91
382.95 K | 129.4
383.6 K | 130.75
383.68 K | 132.15
384.33 K | 133.49
384.77 K | 134.91
384.84 K | 135.92
385.06 K | 137.27
385.35 K | 138.45
385.72 K | 140.01
386.06 K | 141.27
386.74 K | 142.63
386.84 K | 144.13
387.1 K | 145.37
387.47 K | 146.49
387.61 K | 147.69
387.98 K | 149.24
388.41 K | 150.57
388.92 K | 151.94
389.02 K | 153.4
389.36 K | 154.57
390.02 K | 156.49
390.16 K | 157.37
390.36 K | 158.7
390.53 K | 160.05
390.89 K | 161.18
391.07 K | 162.57
391.55 K | 163.94
391.98 K | 165.7
392.2 K | 166.69

CCCC(=O)OC [methyl butanoate] + CC(C)(C)O
Settings | excess molar enthalpy [kJ/mol] | excess molar volume [m3/mol]
[3], 299.15 K, x1 = 0.0487 | 0.328 | –
[3], 299.15 K, x1 = 0.1046 | 0.66 | –
[3], 299.15 K, x1 = 0.1632 | 0.979 | –
[3], 299.15 K, x1 = 0.2233 | 1.25 | –
[3], 299.15 K, x1 = 0.283 | 1.47 | –
[3], 299.15 K, x1 = 0.3383 | 1.63 | –
[3], 299.15 K, x1 = 0.3915 | 1.74 | –
[3], 299.15 K, x1 = 0.4395 | 1.8 | –
[3], 299.15 K, x1 = 0.4853 | 1.84 | –
[3], 299.15 K, x1 = 0.5221 | 1.84 | –
[3], 299.15 K, x1 = 0.5268 | 1.85 | –
[3], 299.15 K, x1 = 0.5545 | 1.84 | –
[3], 299.15 K, x1 = 0.5745 | 1.83 | –
[3], 299.15 K, x1 = 0.636 | 1.74 | –
[3], 299.15 K, x1 = 0.7063 | 1.59 | –
[3], 299.15 K, x1 = 0.778 | 1.35 | –
[3], 299.15 K, x1 = 0.8552 | 1.01 | –
[3], 299.15 K, x1 = 0.9325 | 0.54 | –
[3], 318.15 K, x1 = 0.0458 | 0.292 | –
[3], 318.15 K, x1 = 0.1 | 0.59 | –
[3], 318.15 K, x1 = 0.1556 | 0.865 | –
[3], 318.15 K, x1 = 0.2136 | 1.15 | –
[3], 318.15 K, x1 = 0.2734 | 1.38 | –
[3], 318.15 K, x1 = 0.3313 | 1.55 | –
[3], 318.15 K, x1 = 0.3854 | 1.68 | –
[3], 318.15 K, x1 = 0.4221 | 1.74 | –
[3], 318.15 K, x1 = 0.4655 | 1.79 | –
[3], 318.15 K, x1 = 0.5127 | 1.8 | –
[3], 318.15 K, x1 = 0.5632 | 1.8 | –
[3], 318.15 K, x1 = 0.6217 | 1.74 | –
[3], 318.15 K, x1 = 0.6845 | 1.62 | –
[3], 318.15 K, x1 = 0.7505 | 1.44 | –
[3], 318.15 K, x1 = 0.8187 | 1.17 | –
[3], 318.15 K, x1 = 0.884 | 0.815 | –
[3], 318.15 K, x1 = 0.9472 | 0.426 | –
[4], 303.15 K, x1 = 0.0628 | – | 1.6e-07
[4], 303.15 K, x1 = 0.0928 | – | 2.36e-07
[4], 303.15 K, x1 = 0.1566 | – | 3.68e-07
[4], 303.15 K, x1 = 0.194 | – | 4.3e-07
[4], 303.15 K, x1 = 0.2507 | – | 5.07e-07
[4], 303.15 K, x1 = 0.3088 | – | 5.69e-07
[4], 303.15 K, x1 = 0.3502 | – | 6.04e-07
[4], 303.15 K, x1 = 0.3916 | – | 6.3e-07
[4], 303.15 K, x1 = 0.453 | – | 6.49e-07
[4], 303.15 K, x1 = 0.5059 | – | 6.51e-07
[4], 303.15 K, x1 = 0.5463 | – | 6.4e-07
[4], 303.15 K, x1 = 0.6022 | – | 6.17e-07
[4], 303.15 K, x1 = 0.6588 | – | 5.71e-07
[4], 303.15 K, x1 = 0.698 | – | 5.37e-07
[4], 303.15 K, x1 = 0.7527 | – | 4.73e-07
[4], 303.15 K, x1 = 0.7928 | – | 4.2e-07
[4], 303.15 K, x1 = 0.851 | – | 3.21e-07
[4], 303.15 K, x1 = 0.9115 | – | 2.06e-07
[4], 303.15 K, x1 = 0.942 | – | 1.4e-07
[4], 318.15 K, x1 = 0.1079 | – | 2.35e-07
[4], 318.15 K, x1 = 0.1326 | – | 2.91e-07
[4], 318.15 K, x1 = 0.1749 | – | 3.68e-07
[4], 318.15 K, x1 = 0.2201 | – | 4.34e-07
[4], 318.15 K, x1 = 0.2751 | – | 5.03e-07
[4], 318.15 K, x1 = 0.3257 | – | 5.54e-07
[4], 318.15 K, x1 = 0.3949 | – | 6.05e-07
[4], 318.15 K, x1 = 0.4521 | – | 6.3e-07
[4], 318.15 K, x1 = 0.4783 | – | 6.36e-07
[4], 318.15 K, x1 = 0.55 | – | 6.31e-07
[4], 318.15 K, x1 = 0.5996 | – | 6.16e-07
[4], 318.15 K, x1 = 0.6675 | – | 5.74e-07
[4], 318.15 K, x1 = 0.7318 | – | 5.24e-07
[4], 318.15 K, x1 = 0.8163 | – | 4.04e-07
[4], 318.15 K, x1 = 0.8728 | – | 3.17e-07
